Patent publication US7662832B2, “Pyrrolo[2,3-c]pyridine derivatives and processes for the preparation thereof” (priority 2004, dated 2010)
Structures can show the parent of a compound that is named as a salt.

These compounds were tested against Proton Pump (H^+/K^+-ATPase) (Sus scrofa, UniProt P19156) (assay: Inhibitory effects on proton pump (H^+/K^+-ATPase) activity). Details: hog gastric vesicles; K^+ stimulated H^+/K^+-ATPase activity; 30 minutes at 37° C.
Format: biochemical

Chain of Proton Pump (H^+/K^+-ATPase) (P19156 2-1034 limits assumed): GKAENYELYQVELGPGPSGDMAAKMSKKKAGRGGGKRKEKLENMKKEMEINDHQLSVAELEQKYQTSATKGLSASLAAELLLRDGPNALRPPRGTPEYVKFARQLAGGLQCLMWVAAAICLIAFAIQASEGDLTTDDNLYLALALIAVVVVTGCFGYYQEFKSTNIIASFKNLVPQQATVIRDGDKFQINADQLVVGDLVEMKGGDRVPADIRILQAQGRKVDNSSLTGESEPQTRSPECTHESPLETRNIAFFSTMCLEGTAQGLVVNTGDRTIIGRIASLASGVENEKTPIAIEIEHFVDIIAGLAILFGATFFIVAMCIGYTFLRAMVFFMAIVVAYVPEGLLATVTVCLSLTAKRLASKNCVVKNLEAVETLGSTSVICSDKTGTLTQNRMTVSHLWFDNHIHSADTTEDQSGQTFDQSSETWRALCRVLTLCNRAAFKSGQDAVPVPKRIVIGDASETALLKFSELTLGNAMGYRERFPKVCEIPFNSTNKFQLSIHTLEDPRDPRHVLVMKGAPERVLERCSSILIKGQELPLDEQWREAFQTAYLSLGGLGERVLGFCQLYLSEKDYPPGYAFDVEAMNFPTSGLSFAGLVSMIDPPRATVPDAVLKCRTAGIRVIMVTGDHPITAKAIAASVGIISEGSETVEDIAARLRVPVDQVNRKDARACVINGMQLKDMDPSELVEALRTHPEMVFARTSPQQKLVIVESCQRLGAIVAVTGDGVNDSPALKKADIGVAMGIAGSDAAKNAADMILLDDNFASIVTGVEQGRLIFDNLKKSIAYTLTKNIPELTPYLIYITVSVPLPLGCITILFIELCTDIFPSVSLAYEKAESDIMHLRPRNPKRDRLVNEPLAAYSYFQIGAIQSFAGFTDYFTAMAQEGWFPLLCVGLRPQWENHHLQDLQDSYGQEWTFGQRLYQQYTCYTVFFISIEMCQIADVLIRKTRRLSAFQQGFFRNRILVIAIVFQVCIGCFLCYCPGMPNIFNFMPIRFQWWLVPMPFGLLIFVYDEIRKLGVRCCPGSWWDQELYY
Chain of Proton Pump (H^+/K^+-ATPase) (P18434 whole entry partner): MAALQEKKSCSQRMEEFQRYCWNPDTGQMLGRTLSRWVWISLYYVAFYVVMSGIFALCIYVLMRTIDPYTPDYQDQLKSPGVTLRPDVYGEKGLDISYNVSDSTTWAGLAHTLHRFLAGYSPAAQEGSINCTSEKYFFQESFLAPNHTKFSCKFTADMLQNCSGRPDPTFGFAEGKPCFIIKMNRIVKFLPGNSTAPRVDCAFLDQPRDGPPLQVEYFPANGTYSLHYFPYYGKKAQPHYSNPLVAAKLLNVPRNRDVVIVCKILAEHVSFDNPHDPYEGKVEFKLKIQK

SMILES	IC50
Cc1ccc(Cn2c(C)c(C)c3ccnc(N4CCc5ccccc5C4)c32)cc1.Cl [Example 477, 1-(4-methylbenzyl)-7-(1,2,3,4-tetrahydroisoquinolin-2-yl)-2,3-dimethyl-1H-pyrrolo[2,3-c]pyridine hydrochloride]	300 nM
COc1ccc(-c2nccc3c(C)c(C)n(Cc4ccccc4F)c23)cc1 [Example 353, 1-(2-fluorobenzyl)-7-(4-methoxyphenyl)-2,3-dimethyl-1H-pyrrolo[2,3-c]pyridine hydrochloride]	490 nM
CCC1c2ccccc2CCN1c1nccc2c(C)c(C)n(CC=C(C)C)c12 (stereo not drawn) [Example 578, 2-[2,3-dimethyl-1-(3-methylbut-2-enyl)-1H-pyrrolo[2,3-c]pyridin-7-yl]-1-ethyl-1,2,3,4-tetrahydroisoquinoline hydrochloride]	290 nM
C=CCn1c(C)c(C)c2ccnc(-c3ccc(F)cc3)c21 [Example 326, 1-allyl-7-(4-fluorophenyl)-2,3-dimethyl-1H-pyrrolo[2,3-c]pyridine hydrochloride]	306 nM
COCCn1c(C)c(C)c2ccnc(N3CCc4ccccc4C3C3CC3)c21 (stereo not drawn) [Example 571, 1-cyclopropyl-2-[1-(2-methoxyethyl)-2,3-dimethyl-1H-pyrrolo[2,3-c]pyridin-7-yl]-1,2,3,4-tetrahydroisoquinoline hydrochloride]	470 nM
Cc1c(C)n(Cc2ccc(F)cc2)c2c(CN(C)c3ccc(F)cc3)nccc12 [Example 118, N-[1-(4-fluorobenzyl)-2,3-dimethyl-1H-pyrrolo[2,3-c]pyridin-7-ylmethyl]-N-(4-fluorophenyl)-methylamine hydrochloride]	332 nM
Cc1[nH]c2c(N3CCc4ccccc4C3)nc(C(=O)N3CCN(C)CC3)cc2c1C [Example 827, [7-(3,4-dihydro-1H-isoquinolin-2-yl)-2,3-dimethyl-1H-pyrrolo[2,3-c]pyridin-5-yl]-(4-methylpiperazin-1-yl)-methanone hydrochloride]	77 nM
Cc1cccc(Cn2c(C)c(C)c3cc(CN4CCN(C)CC4)nc(N4CCc5ccccc5C4)c32)c1 [Example 878, 2-[2,3-dimethyl-1-(3-methylbenzyl)-5-(4-methylpiperazin-1-ylmethyl)-1H-pyrrolo[2,3-c]pyridin-7-yl]-1,2,3,4-tetrahydroisoquinoline hydrochloride]	152 nM
Cc1c(C)n(Cc2cccc(Cl)c2)c2c(N3CCc4ccccc4C3)nc(C(N)=O)cc12 [Example 750, 1-(3-chlorobenzyl)-7-(3,4-dihydro-1H-isoquinolin-2-yl)-2,3-dimethyl-1H-pyrrolo[2,3-c]pyridin-5-carboxamide]	298 nM
Cc1c(C)n(CC(C)C)c2c(CCc3ccccc3)nccc12 [Example 447, 1-isobutyl-2,3-dimethyl-7-phenethyl-1H-pyrrolo[2,3-c]pyridine hydrochloride]	460 nM
Cc1ccc(Cn2c(C)c(C)c3ccnc(C=Cc4ccccc4)c32)cc1 [Example 417, 2,3-dimethyl-1-(4-methylbenzyl)-7-styryl-1H-pyrrolo[2,3-c]pyridine hydrochloride]	370 nM
COc1cccc(Cn2c(C)c(C)c3cc(C(=O)N4CCSCC4)nc(N4CCc5ccccc5C4)c32)c1 [Example 784, [7-(3,4-dihydro-1H-isoquinolin-2-yl)-1-(3-methoxybenzyl)-2,3-dimethyl-1H-pyrrolo[2,3-c]pyridin-5-yl]-(thiomorpholin-1-yl)-methanone hydrochloride]	202 nM
Cc1[nH]c2c(N3CCc4ccc(F)cc4C3C)nccc2c1C (stereo not drawn) [Example 541, 7-fluoro-2-(2,3-dimethyl-1H-pyrrolo[2,3-c]pyridin-7-yl)-1-methyl-1,2,3,4-tetrahydroisoquinoline hydrochloride]	350 nM
Cc1c(C)n(Cc2ccccc2)c2c(N3CCc4ccccc4C3)nc(C(=O)N3CCCCC3)cc12 [Example 788, [1-benzyl-7-(3,4-dihydro-1H-isoquinolin-2-yl)-2,3-dimethyl-1H-pyrrolo[2,3-c]pyridin-5-yl]-(piperidin-1-yl)-methanone hydrochloride]	52 nM
Cc1c(C)n(CCc2ccc(S(C)(=O)=O)cc2)c2c(N3CCc4ccccc4C3)nccc12 [Example 512, 1-[2-(4-methylsulfonylphenyl)ethyl]-7-(1,2,3,4-tetrahydroisoquinolin-2-yl)-2,3-dimethyl-1H-pyrrolo[2,3-c]pyridine hydrochloride]	130 nM
C=C=Cn1c(C)c(C)c2ccnc(N3CCc4ccccc4C3)c21 [Example 526, 1-(propa-1,2-dienyl)-7-(1,2,3,4-tetrahydroisoquinolin-2-yl)-2,3-dimethyl-1H-pyrrolo[2,3-c]pyridine hydrochloride]	179 nM
CCOCCn1c(C)c(C)c2ccnc(N3CCc4ccccc4C3)c21 [Example 503, 1-(2-ethoxyethyl)-7-(1,2,3,4-tetrahydroisoquinolin-2-yl)-2,3-dimethyl-1H-pyrrolo[2,3-c]pyridine hydrochloride]	160 nM
COCCn1c(C)c(C)c2cc(C(=O)N3CCCCC3)nc(N3CCc4ccccc4C3)c21 [Example 792, [7-(3,4-dihydro-1H-isoquinolin-2-yl)-1-(2-methoxyethyl)-2,3-dimethyl-1H-pyrrolo[2,3-c]pyridin-5-yl]-(piperidin-1-yl)-methanone hydrochloride]	59 nM
C=CCn1c(C)c(C)c2ccnc(NCc3ccccc3)c21 [Example 176, 1-allyl-7-benzylamino-2,3-dimethyl-1H-pyrrolo[2,3-c]pyridine hydrochloride]	260 nM
CCn1c(C)c(C)c2ccnc(N3CCc4cc(F)ccc4C3C)c21 (stereo not drawn) [Example 562, 2-(1-ethyl-2,3-dimethyl-1H-pyrrolo[2,3-c]pyridin-7-yl)-6-fluoro-1-methyl-1,2,3,4-tetrahydroisoquinoline hydrochloride]	58 nM
Cc1c(C)n(CC2CC2)c2c(CN(C)c3ccc(F)cc3)nccc12 [Example 112, N-(1-cyclopropylmethyl-2,3-dimethyl-1H-pyrrolo[2,3-c]pyridin-7-ylmethyl)-N-(4-fluorophenyl)-methylamine hydrochloride]	151 nM
Cc1ccc(-c2nccc3c(C)c(C)n(Cc4ccccc4)c23)cc1 [Example 281, 1-benzyl-2,3-dimethyl-7-(p-tolyl)-1H-pyrrolo[2,3-c]pyridine hydrochloride]	292 nM
Cc1c(C)n(CC(C)C)c2c(N(C)Cc3ccc(F)cc3)nccc12 [Example 149, 7-[N-(4-fluorobenzyl)-N-methyl]amino-1-isobutyl-2,3-dimethyl-1H-pyrrolo[2,3-c]pyridine hydrochloride]	210 nM
Cc1c(C)n(CC2CC2)c2c(N3CCc4ccccc4C3)nc(C(=O)N3CCOCC3)cc12 [Example 778, [1-cyclopropylmethyl-7-(3,4-dihydro-1H-isoquinolin-2-yl)-2,3-dimethyl-1H-pyrrolo[2,3-c]pyridin-5-yl]-(morpholin-4-yl)-methanone hydrochloride]	39 nM
Cc1[nH]c2c(N3CCc4ccccc4C3C)nccc2c1C (stereo not drawn) [Example 560, 2-(2,3-dimethyl-1H-pyrrolo[2,3-c]pyridin-7-yl)-1-methyl-1,2,3,4-tetrahydroisoquinoline sodium]	17 nM
Cc1c(C)n(Cc2cccc(F)c2)c2c(CCc3ccccc3)nccc12 [Example 449, 1-(3-fluorobenzyl)-2,3-dimethyl-7-phenethyl-1H-pyrrolo[2,3-c]pyridine hydrochloride]	87 nM
Cc1c(C)n(CC2CC2)c2c(N3CCc4ccccc4C3)nccc12 [Example 497, 1-cyclopropylmethyl-7-(1,2,3,4-tetrahydroisoquinolin-2-yl)-2,3-dimethyl-1H-pyrrolo[2,3-c]pyridine hydrochloride]	320 nM
Cc1c(C)n(Cc2cccc(F)c2)c2c(N3CCc4ccccc4C3)nc(C(=O)N3CCCCC3)cc12 [Example 796, [7-(3,4-dihydro-1H-isoquinolin-2-yl)-1-(3-fluorobenzyl)-2,3-dimethyl-1H-pyrrolo[2,3-c]pyridin-5-yl]-(piperidin-1-yl)-methanone hydrochloride]	305 nM
CCCn1c(C)c(C)c2cc(C(=O)N3CCOCC3)nc(N3CCc4ccccc4C3)c21 [Example 781, [7-(3,4-dihydro-1H-isoquinolin-2-yl)-2,3-dimethyl-1-propyl-1H-pyrrolo[2,3-c]pyridin-5-yl]-(morpholin-4-yl)-methanone hydrochloride]	39 nM

What follows are compounds tested on basal gastric acid secretion (assay: Inhibitory effects on basal gastric acid secretion in pylorus-ligated rats (Shay's rat model)). Details: oral, one hour before pylorus ligation, total acid output 5 hours after ligation.
Format: in vivo, Sprague Dawley (SD) rats
Method: Inhibitory effects of the compounds of the present invention on basal gastric acid secretion were performed according to Shay's rat model (Shay, H., et al., 1945, gastroenterology, 5, 43-61). Male Sprague Dawley (SD) rats (200±10 g body weight) were divided into […] (n=5) and fasted for 24 hours with free access to water. Control group was orally administered with 0.5% methylcellulose alone and the other groups were orally administered with test compounds suspended in 0.5% methylcellulose solution at doses of 1, 3 and 10 mg/kg/5 ml one hour before pylorus ligation.
Under ether anesthesia, the abdomens of the rats were incised and then the pylorus was ligated. 5 hours after ligation, the animals were sacrificed, and the gastric contents were collected. The collected contents were centrifuged at 1,000×g for 10 minutes to obtain the gastric juice. Total acid output was measured by 0.01N NaOH volume (ueq/ml) for automatic titration of the gastric juice to pH 7.0 and the ED50s of test compounds were calculated using the Litchfield-Wilcoxon method. % inhibitory activity was calculated from the following equation and the results are shown in Table 2. % inhibitory activity of test compound=(total acid output of control group−total acid output of the group treated with test compounds)/total acid output of control group×100

SMILES	ED50
Cc1ccc(Cn2c(C)c(C)c3ccnc(N4CCc5ccccc5C4)c32)cc1.Cl [Example 477, 1-(4-methylbenzyl)-7-(1,2,3,4-tetrahydroisoquinolin-2-yl)-2,3-dimethyl-1H-pyrrolo[2,3-c]pyridine hydrochloride]	2 mg/kg
Cc1c(C)n(Cc2ccc(F)cc2)c2c(NCc3ccc(Cl)cc3)nccc12.Cl [Example 218, 7-(4-chlorobenzylamino)-1-(4-fluorobenzyl)-2,3-dimethyl-1H-pyrrolo[2,3-c]pyridine hydrochloride]	4.1 mg/kg
Cc1c(C)n(Cc2ccc(C(C)(C)C)cc2)c2c(N3CCc4ccccc4C3)nccc12.Cl [Example 507, 1-(4-tert-butylbenzyl)-7-(1,2,3,4-tetrahydroisoquinolin-2-yl)-2,3-dimethyl-1H-pyrrolo[2,3-c]pyridine hydrochloride]	3.1 mg/kg
Cc1c(C)n(Cc2cccc(F)c2)c2c(NCc3ccc(F)cc3)nccc12.Cl [Example 207, 1-(3-fluorobenzyl)-7-(4-fluorobenzylamino)-2,3-dimethyl-1H-pyrrolo[2,3-c]pyridine hydrochloride]	8.3 mg/kg
